Tests used:
[1] = test system: GCTB cultured cells of the case 1; assay: Tunel assay and caspase 3 staining of GCTB cultured cells (apoptosis); format: cell-based, human; details: zaltoprofen 100 and 200 μM; 8 hours and 24 hours
Experimental: Further, the aforementioned GCTB cultured cells of the case 1 mentioned above were cultured on chamber cover slide glass, and zaltoprofen was added at different concentrations (100, and 200 μM) 24 hours afterward. Then, 8 hours and 24 hours afterward, the cells were fixed with 4% paraformaldehyde, staining with caspase 3 and Tunel assay were performed, and presence or absence of apoptosis was analyzed. In the Tunel assay, fragmented DNAs produced in the process of apoptosis were detected by the TdT-mediated dUTP nick end labeling method (TUNEL). Observation was performed with a fluorescence microscope (BZ-9000) of Keyence, and positive images for each concentration were quantitatively observed (FIGS. 2 to 5).

[2] = test system: PPARγ expression in GCTB cultured cells; assay: PPARγ immunostaining of GCTB cultured cells; format: cell-based, human; details: zaltoprofen 10, 50, 100, 200 μM; 24 hours; about 15% in the control
Experimental: The GCTB cultured cells of the aforementioned case 1 were cultured on chamber cover slide glass, and 24 hours thereafter, zaltoprofen was added at various concentrations (10, 50, 100, and 200 μM). After 24 hours, the cells were fixed with 4% paraformaldehyde, and immunohistochemical staining of PPARγ was performed. The PPARγ protein was fluorescently detected by using the antibody SC-7273 of Santa Cruz Biotechnology, Inc. as the primary antibody and the rat anti-mouse IgG FITC (11-4011-85) of eBioscience as the secondary antibody. Observation was performed with a fluorescence microscope (BZ-9000) of Keyence, and positive images for each concentration were quantitatively observed (FIGS. 6 and 7).

[3] = test system: giant cell tumor of bone (GCTB); assay: Apoptosis analysis of operational excision sample of GCTB patient administered with zaltoprofen; format: in vivo, human
Experimental: An operational excision sample of a person who had been administered with 3 tablets per day of the zaltoprofen tablets, Soleton Tablet 80 (generic name: zaltoprofen, 80 mg, Nippon Chemiphar) for about 28 days for pain due to the tumor, and then subjected to the operation, and an operational excision sample of giant cell tumor of bone extracted from a patient with giant cell tumor of bone not administered with zaltoprofen (case in which tumor was excised by usual surgical operation according to standard therapy) as a control were subjected to caspase 3 staining and Tunel assay, and analyzed for the presence or absence of apoptosis. The caspase 3 protein was fluorescently detected by using Anti-ACTIVE Caspase-3-Ab (Roche) ([…]) (12-4739-81) as the primary antibody, and Donkey F2 Fragment anti-Rabbit IgG PE of eBioscience as the secondary antibody. Observation was performed with a fluorescence microscope (BZ-9000) produced by Keyence (FIG. 10).

[4] = test system: PPARγ expression in cells of giant cell tumor of tendon sheath (GCTT); assay: PPARγ immunostaining of GCTT cells; format: cell-based, human; details: zaltoprofen 400 μM or troglitazone 200 μM
[5] = test system: cells of giant cell tumor of tendon sheath (GCTT); assay: Fat cell differentiation of GCTT cells (HCS LipidTOX Green); format: cell-based, human; details: zaltoprofen 400 μM, compared with control
Experimental: It has been reported that PPARγ is a transcription factor indispensable for fat cell differentiation. Therefore, the GCTB cultured cells of the aforementioned case 1 were cultured on chamber cover slide glass, and when they reached confluent, zaltoprofen was added to the cells at various concentrations (10, 50, and 100 μM). From 24 hours thereafter, the cells were cultured in a fat cell differentiation-inducing medium (STREMPRO Adipogenesis Differentiation Kit, Invitrogen) for 7 to 14 days, and differentiation into fat cells was analyzed with HCS Lipid TOX Green Neutral Lipid Stain (Invitrogen) (FIGS. 8 and 9).
It has been reported that PPARγ is a transcription factor indispensable for fat cell differentiation. Therefore, in the same manner as that of Example 3, zaltoprofen was added at a concentration of 400 μM to the cells of giant cell tumor of tendon sheath (GCTT) or cells of pigmented villonodular synovitis (PVNS), and differentiation into fat cells was analyzed (FIGS. 30 and 31). As a result, it was successfully confirmed that the positive images obtained with HCS LipidTOX Green increased in the zaltoprofen-added cells compared with the control.

SW1353 cells [6] = assay: Suppression of cell proliferation of chondrosarcoma cell line SW1353 (CCK-8); format: cell-based, human; details: drug at various concentrations
Excerpt: The H-EMC-SS cells were obtained from the Riken BioResource Center. As the SW1353 cells, those obtained from ATCC were used.

SW1353 cells [7] = assay: Cell migration of human chondrosarcoma cell line SW1353; format: cell-based; details: 72 hours
Experimental: The analysis of cell migration was performed by using a 6-well plate of TPP according to the method described in Takeuchi A, et al., Cancer Science, 104:740-749, 2013 (Low molecular weight heparin suppresses receptor for advanced glycation end products-mediated expression of malignant phenotype in human fibrosarcoma cells). Cells of the human chondrosarcoma cell line, SW1353, were cultured in the same manner as that of Example 1 until they became sub-confluent, and the cells were delaminated in a width of 1 mm using a micropipette tip (200 μl). […] Then, area of the cells migrated to the region where the cells were delaminated was measured by using Image J software (http://rsb.info.nih.gov/ij/index.html) (FIGS. 73 and 74).

SW1353 cells [8] = assay: Cell invasion of SW1353 cells cultured beforehand with or without GW9662; format: cell-based, human
Experimental: Cells of the human chondrosarcoma cell line, SW1353, were cultured in the same manner as that of Example 1 until they became sub-confluent, then, GW9662, which is an irreversible antagonist of PPARγ, was added to the cells at a final concentration of 1 μM, and the cells were cultured for 60 minutes. Then, zaltoprofen was added to the cells at various concentrations of 200, 300, and 400 μM, cell invasion was measured with Matrigel™ Invasion Chamber (BD Bioscience, catalog number 354480) 24 hours afterward, and the result was compared with the degree of cell invasion observed with addition of only DMSO not dissolving GW9662 (FIG. 78).

[9] = test system: GCTB cultured cells (case 1, case 2; GCT-1, GCT-2); details: GCTB derived from a patient; inventors' earlier reports; cited from earlier work
[10] = test system: GCTB cultured cells of the case 1; details: GCTB derived from a patient; inventors' earlier reports; cited from earlier work
[11] = test system: PPARγ expression in giant cell tumor of bone (GCTB); details: patient who had taken zaltoprofen for four weeks at 240 mg per day; inventors' earlier reports; cited from earlier work
H-EMC-SS cells = details: inventors' earlier reports; cited from earlier work
[12] = GCTB patient, 3 tablets per day Soleton Tablet 80 for about 28 days, vs patient not administered

## CC(C(=O)O)c1ccc2c(c1)CC(=O)c1ccccc1S2 (centres unmarked) [zaltoprofen]
[1]
  Tunel-positive ratio: concentration and administration time-dependent increases
  caspase 3-positive ratio: concentration and administration time-dependent increases
[2]
  expression of PPARγ (ratio of PPARγ-positive cells): increased in a zaltoprofen concentration-dependent manner
[3]; GCTB patient who had taken zaltoprofen over four weeks at 240 mg per day, fat cell-like cells existed instead
  cells found in excised bone tissues at ablative operation: cells characteristic to bone giant cells did not exist in the excised bone tissues
[3]; [12]
  Tunel-positive cells in excision sample: could be confirmed
  caspase 3-positive cells in excision sample: could be confirmed
[4]
  expression of PPARγ (PPARγ-positive images): expression of PPARγ was successfully observed
[5]
  positive images obtained with HCS LipidTOX Green (differentiation into fat cells): increased
SW1353 cells [6]
  suppression of cell proliferation (absorbance at 450 nm): suppressed proliferation
SW1353 cells [7]; 400 μM zaltoprofen
  suppression of cell migration of SW1353 cells: about 40%
SW1353 cells [7]; all set concentrations, concentration-dependent
  suppression of cell migration of SW1353 cells: suppressed the cell migration
SW1353 cells [8]; 400 μM zaltoprofen, 24 hours, without GW9662
  suppression of cell invasion of SW1353 cells: higher than 80%
SW1353 cells [8]; 400 zaltoprofen, GW9662 1 μM
  suppression of the cell invasion after preincubation with GW9662: substantially eliminated by GW9662
[9]
  suppression of proliferation of cells of giant cell tumor of bone: suppressed proliferation
[10]
  differentiation of the cells into fat cells: induced differentiation of the cells into fat cells
[11]
  cells observed instead of the tumor: fat cell-like cells showing enhanced expression of PPARγ were observed
H-EMC-SS cells
  apoptosis in H-EMC-SS cells: induced apoptosis
